Test results reported in ChEMBL document CHEMBL5236614, “Discovery of Potent and Selective Dual Leucine Zipper Kinase/Leucine Zipper-Bearing Kinase Inhibitors with Neuroprotective Properties in In Vitro and In Vivo Models of Amyotrophic Lateral Sclerosis” (J Med Chem, 2022).

Assay: Microsomal stability in human liver microsomes assessed as intrinsic clearance
Type: ADME, Microsome
Details: read-out: CLH

CLint scaled [mL/min/kg]	Structure (SMILES)
15.8	Nc1ncc(-c2cc(C3CC3)nc(N3C[C@@H]4C[C@H]3CO4)c2)nc1OC(F)F
15.9	Nc1ncc(-c2cc(C3CC3)cc(N3C[C@@H]4C[C@H]3CO4)n2)nc1OC(F)F
